The values that follow come from BindingDB's records for patent US10392346 (Topivert Pharma, 2019).

Assay [1] deals with Glycogen synthase kinase-3 alpha (Homo sapiens, UniProt P49840). In words: Enzyme Inhibition. On the procedure: In addition, the concentrations of test compound employed are either 10 μg/mL, 1 μg/mL, 0.1 μg/mL, or 0.01 μg/m: Method 1: The inhibitory activities of test compounds against the p38 MAPKα isoform (MAPK14: Invitrogen) are evaluated indirectly by determining the level of activation/phosphorylation of the down-stream molecule, MAPKAP-K2. The p38 MAPKα protein (80 ng/mL, 2.5 μL) is mixed with the test compound (2.5 μL of either 4 μg/mL, 0.4 μg/mL, 0.04 μg/mL or 0.004 μg/mL) for 2 hr at RT. […] The mixture is incubated for 1 hr at RT. Development reagent (protease, 5 μL) is added for 1 hr prior to detection in a fluorescence microplate reader (Varioskan Flash, ThermoFisher Scientific).

Assay [2] deals with Proto-oncogene tyrosine-protein kinase Src (Homo sapiens, UniProt P12931). The experiment in a line: Enzyme Inhibition. The procedure: The relevant enzyme (3000 ng/mL or 2000 ng/mL respectively, 2.5 μL) is incubated with the test compound (either 1 μg/mL, 0.1 μg/mL, 0.01 μg/mL, or 0.001 μg/mL, 2.5 μL each) for 2 hr at RT. The FRET peptides (8 μM, 2.5 μL), and appropriate ATP solutions (2.5 μL, 800 μM for c-Src, and 60 μM ATP for Syk) are then added to the enzymes/compound mixtures and the mixture incubated for 1 hr. Development reagent (protease, 5 μL) is added for 1 hr prior to detection in a fluorescence microplate reader (Varioskan Flash, ThermoFisher Scientific).

The structures appear in SMILES notation.

Sequence of Proto-oncogene tyrosine-protein kinase Src (P12931 2-536 limits assumed): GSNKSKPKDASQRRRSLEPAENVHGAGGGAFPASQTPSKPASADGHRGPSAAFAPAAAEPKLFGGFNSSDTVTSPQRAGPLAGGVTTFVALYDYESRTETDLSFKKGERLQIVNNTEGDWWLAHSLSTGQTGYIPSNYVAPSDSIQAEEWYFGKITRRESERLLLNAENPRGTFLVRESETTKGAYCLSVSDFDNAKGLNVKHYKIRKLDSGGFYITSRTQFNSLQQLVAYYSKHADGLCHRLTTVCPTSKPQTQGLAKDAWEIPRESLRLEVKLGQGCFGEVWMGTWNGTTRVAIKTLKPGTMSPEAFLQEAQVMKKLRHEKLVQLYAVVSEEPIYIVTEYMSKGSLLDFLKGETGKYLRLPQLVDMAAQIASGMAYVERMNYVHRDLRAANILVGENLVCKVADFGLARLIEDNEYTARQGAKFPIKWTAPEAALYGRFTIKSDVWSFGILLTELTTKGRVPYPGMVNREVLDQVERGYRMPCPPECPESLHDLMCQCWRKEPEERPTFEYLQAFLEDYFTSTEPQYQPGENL
Sequence of Glycogen synthase kinase-3 alpha (P49840 whole entry, canonical isoform): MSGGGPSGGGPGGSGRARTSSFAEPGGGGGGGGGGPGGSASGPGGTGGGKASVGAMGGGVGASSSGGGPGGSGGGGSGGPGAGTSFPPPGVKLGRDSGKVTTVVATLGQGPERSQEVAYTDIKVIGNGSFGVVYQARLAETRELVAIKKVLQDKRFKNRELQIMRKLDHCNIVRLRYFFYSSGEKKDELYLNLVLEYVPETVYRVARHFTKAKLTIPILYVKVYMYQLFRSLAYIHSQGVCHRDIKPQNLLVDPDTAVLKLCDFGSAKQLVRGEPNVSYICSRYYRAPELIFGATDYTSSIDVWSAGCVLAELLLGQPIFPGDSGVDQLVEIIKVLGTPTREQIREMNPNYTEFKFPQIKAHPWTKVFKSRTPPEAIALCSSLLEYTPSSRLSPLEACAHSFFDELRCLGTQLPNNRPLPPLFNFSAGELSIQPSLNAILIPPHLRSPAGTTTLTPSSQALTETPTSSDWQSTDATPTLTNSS

Take `COc1cc(Nc2cc(Oc3ccc(NC(=O)Nc4cc(C(C)(C)C)cc(N[S+](C)[O-])c4OC)c4ccccc34)ccn2)ccc1C(=O)NCCN1CCN(C)CC1` (stereo unspecified) [US10392346, Example 17(a)]: the IC50 in assay [1] was 4 µM; in assay [2], 0.016 µM.
The matching figures for `COc1cc(Nc2cc(Oc3ccc(NC(=O)Nc4cc(C(C)(C)C)cc(NS(C)(=O)=O)c4OC)c4ccccc34)ccn2)ccc1C(=O)N(C)CCCN1CC[S+]([O-])CC1` [US10392346, Example 17(ag)]: 2.75 µM and 0.017 µM.
The matching figures for `COc1cc(Nc2cc(Oc3ccc(NC(=O)Nc4cc(C(C)(C)C)cc(NS(C)(=O)=O)c4OC)c4ccccc34)ccn2)ccc1C(=O)N(C)CCCN1CCS(=O)(=O)CC1` [US10392346, Example 17(ah)]: 9.19 µM and 0.02 µM.
